We go through one compound from paper PMC6988309, “Preclinical efficacy for a novel tyrosine kinase inhibitor, ArQule 531 against acute myeloid leukemia” (Journal of Hematology & Oncology, 2020).

For one series, the system named is OCI-AML3. The experiment in a line: MTS proliferation assay 72 h, OCI-AML3. It counts as cell-based. To be noted: Homo sapiens, OCI-AML-3, read-out: Estimated absolute µM IC50 (95% CI), 4-parameter logistic model.
For the next series, the system named is MCL1. In words: Immunoblot of MCL1 modulation in MOLM-13. It counts as cell-based, human. The note with it: MOLM-13, serum starved, 20 h treatment. How it is done: Fig. 6 Immunoblot analysis for MCL1 modulation in MOLM-13 FLT3-ITD cell line (representative of two independent blots). Cells were serum starved and treated for 20 h with ARQ 531 alone or in combination with venetoclax. […] GAPDH used as loading control. Band densitometry is done using ImageJ and quantified relative to GAPDH and DMSO treatment (a). In vitro analysis for additive or synergistic activity for ARQ 531 and venetoclax combination. Representative of three MTS proliferation assays. The MOLM-13 cell line was treated with increasing doses of ARQ 531 or venetoclax single agents or a combination of both for 72 h. Three biological replicates were analyzed using Combenefit software implementing the mathematical models for Highest Single Agent (HSA), Loewe, and Bliss (b). […]

In series [1] the test system is MOLM-13, MV4-11, and OCI-AML3 cell lines. In words: Annexin/PI apoptosis assay 72 h. To be noted: increasing concentrations of ARQ 531 or 50 nM gilteritinib. It counts as cell-based, human. On the procedure:
Cells were treated for 72 h then stained for 20 min in 1X Annexin Binding buffer (BD Biosciences, Franklin Lakes, NJ) containing Annexin V-FITC and Propidium Iodine (Leinco Technologies, Fenton, MO). Live and apoptotic cells were measured using FC 500 flow cytometer and analyzed on Kaluza software (Beckman Coulter, Pasadena, CA).

Series [2] concerns MOLM-13 disseminated AML xenograft. In words: MOLM-13 disseminated xenograft, ARQ + Ven combination study (NCG mice). It counts as in vivo. To be noted: 50 mg/kg ARQ 531 and/or 75 mg/kg venetoclax Q.D.P.O from 4 days post-engraftment until ERC; vehicle 25 days. How it is done:
All experiments were conducted after approval of The Ohio State University Institutional Animal Care and Use Committee. Mice were randomized and enrolled for daily oral gavage (Q.D.P.O) treatment of vehicle or 50 mg/kg ARQ 531. Mice were treated until reaching early removal criteria (ERC) defined as 20% weight loss, lethargy, hind limb paralysis, moribund, anorexia, dehydration, hunched posture, severe diarrhea, breathing difficulties, or any abnormal neurological symptoms. […]
Fig. 7 BCL2 inhibition improves ARQ 531 in vivo activity. a Kaplan–Meier survival curve in the MOLM-13 xenograft after mice were treated with vehicle (N = 9) or 50 mg/kg ARQ 531 Q.D.P.O (N = 9) or 75 mg/kg venetoclax Q.D.P.O (N = 10) or 50 mg/kg ARQ 531 and 75 mg/kg venetoclax combination Q.D.P.O (N = 10) at 4 days post engraftment until ERC. b Noninvasive serial whole body bioluminescence imaging of ventral view to monitor leukemia progression and regression post treatment. Mice were injected with 150 mg/kg Firefly D-Luciferin for evaluation of tumor burden as determined by whole body bioluminescence imaging using IVIS imager

The target in a further series is T1, FLT3-WT (Homo sapiens, UniProt P36888).
T1 construct: measured using recombinant protein constructs of kinase domains (Reaction Biology); purchased Reaction Biology
In words: Biochemical assay of recombinant kinases, FLT3-WT. To be noted: recombinant kinase domain, 10 μmol/L ATP. How it is done: Biochemical inhibition of FLT3-WT and FLT3-ITD fusion was measured using recombinant protein constructs of kinase domains (Reaction Biology).

The conditions of series [3]: cited from earlier work.

T1 sequence (P36888 610-943 limits assumed): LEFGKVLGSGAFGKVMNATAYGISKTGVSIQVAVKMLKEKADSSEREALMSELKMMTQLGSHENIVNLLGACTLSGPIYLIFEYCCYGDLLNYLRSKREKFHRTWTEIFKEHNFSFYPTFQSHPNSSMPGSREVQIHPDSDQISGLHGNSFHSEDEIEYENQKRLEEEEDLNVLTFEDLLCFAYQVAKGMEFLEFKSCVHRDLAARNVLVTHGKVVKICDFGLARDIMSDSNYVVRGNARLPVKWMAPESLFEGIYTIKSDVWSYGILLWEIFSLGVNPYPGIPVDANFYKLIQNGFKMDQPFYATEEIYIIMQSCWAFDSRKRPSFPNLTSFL

In general, IC50 refers to the midpoint of a concentration-inhibition curve. The term Cmax denotes the highest concentration seen after dosing. With `O=C(c1ccc(Oc2ccccc2)cc1Cl)c1c[nH]c2ncnc(N[C@@H]3CC[C@@H](CO)OC3)c12` [ARQ 531], the values for the IC50 with OCI-AML3 and on FLT3-WT were 1.51 µM and 82 nM, respectively. Moreover, in the series with MCL1, the MCL1 protein level entry is on record as “MCL1 downregulation”. In addition, the “apoptosis / cytotoxicity (Annexin/PI)” value in series [1] is recorded as “induced cell apoptosis”. Moreover, the survival in series [2] worked out at 27 days. The Cmax in series [3] (65 mg daily dose) was around 3000 nM. Also, the concentration steady-state levels entry in series [3] (ongoing phase 1 dose escalation trial in relapsed or refractory CLL) is “exceeding 1 μM”.
